Results reported in patent publication US20240336574A1 (LATIGO BIOTHERAPEUTICS, INC., priority 2021, published 2024).
pIC50: −log10 of the molar value. Where two headings read alike, the source gives them in different places.

Target: T1, recombinant human NaV1.8 stably transfected HEK cells (Homo sapiens, UniProt Q9Y5Y9)
T1 construct: expressed in transfected cells; host or cells: HEK cells, stably transfected
Experiment: Compound profiling on NaV1.8, human NaV1.8 cell line, SyncroPatch384PE automated patch clamp assay (Example 102, first set of compounds, Table 16)
Format: cell-based
Conditions: human NaV1.8 HEK cells, Table 16 (first set of compounds)
Procedure, shortened: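 IC50s come from two read-outs: resting-state block (P1, 10 mV step from −120 mV) and inactivated-state block (P2, after 10 s at −40 mV), scaled between DMSO and 250 μM tetracaine. Compounds (20–0.001 μM final, 1:3 steps) were applied for 5 min, 15 s sweeps. Cells kept at 30 °C the day before.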

[1] = inactivated state block (P2 measurement), read-out: P2IC50
[2] = resting state block (P1 measurement), read-out: P1IC50

T1 sequence (Q9Y5Y9 whole entry): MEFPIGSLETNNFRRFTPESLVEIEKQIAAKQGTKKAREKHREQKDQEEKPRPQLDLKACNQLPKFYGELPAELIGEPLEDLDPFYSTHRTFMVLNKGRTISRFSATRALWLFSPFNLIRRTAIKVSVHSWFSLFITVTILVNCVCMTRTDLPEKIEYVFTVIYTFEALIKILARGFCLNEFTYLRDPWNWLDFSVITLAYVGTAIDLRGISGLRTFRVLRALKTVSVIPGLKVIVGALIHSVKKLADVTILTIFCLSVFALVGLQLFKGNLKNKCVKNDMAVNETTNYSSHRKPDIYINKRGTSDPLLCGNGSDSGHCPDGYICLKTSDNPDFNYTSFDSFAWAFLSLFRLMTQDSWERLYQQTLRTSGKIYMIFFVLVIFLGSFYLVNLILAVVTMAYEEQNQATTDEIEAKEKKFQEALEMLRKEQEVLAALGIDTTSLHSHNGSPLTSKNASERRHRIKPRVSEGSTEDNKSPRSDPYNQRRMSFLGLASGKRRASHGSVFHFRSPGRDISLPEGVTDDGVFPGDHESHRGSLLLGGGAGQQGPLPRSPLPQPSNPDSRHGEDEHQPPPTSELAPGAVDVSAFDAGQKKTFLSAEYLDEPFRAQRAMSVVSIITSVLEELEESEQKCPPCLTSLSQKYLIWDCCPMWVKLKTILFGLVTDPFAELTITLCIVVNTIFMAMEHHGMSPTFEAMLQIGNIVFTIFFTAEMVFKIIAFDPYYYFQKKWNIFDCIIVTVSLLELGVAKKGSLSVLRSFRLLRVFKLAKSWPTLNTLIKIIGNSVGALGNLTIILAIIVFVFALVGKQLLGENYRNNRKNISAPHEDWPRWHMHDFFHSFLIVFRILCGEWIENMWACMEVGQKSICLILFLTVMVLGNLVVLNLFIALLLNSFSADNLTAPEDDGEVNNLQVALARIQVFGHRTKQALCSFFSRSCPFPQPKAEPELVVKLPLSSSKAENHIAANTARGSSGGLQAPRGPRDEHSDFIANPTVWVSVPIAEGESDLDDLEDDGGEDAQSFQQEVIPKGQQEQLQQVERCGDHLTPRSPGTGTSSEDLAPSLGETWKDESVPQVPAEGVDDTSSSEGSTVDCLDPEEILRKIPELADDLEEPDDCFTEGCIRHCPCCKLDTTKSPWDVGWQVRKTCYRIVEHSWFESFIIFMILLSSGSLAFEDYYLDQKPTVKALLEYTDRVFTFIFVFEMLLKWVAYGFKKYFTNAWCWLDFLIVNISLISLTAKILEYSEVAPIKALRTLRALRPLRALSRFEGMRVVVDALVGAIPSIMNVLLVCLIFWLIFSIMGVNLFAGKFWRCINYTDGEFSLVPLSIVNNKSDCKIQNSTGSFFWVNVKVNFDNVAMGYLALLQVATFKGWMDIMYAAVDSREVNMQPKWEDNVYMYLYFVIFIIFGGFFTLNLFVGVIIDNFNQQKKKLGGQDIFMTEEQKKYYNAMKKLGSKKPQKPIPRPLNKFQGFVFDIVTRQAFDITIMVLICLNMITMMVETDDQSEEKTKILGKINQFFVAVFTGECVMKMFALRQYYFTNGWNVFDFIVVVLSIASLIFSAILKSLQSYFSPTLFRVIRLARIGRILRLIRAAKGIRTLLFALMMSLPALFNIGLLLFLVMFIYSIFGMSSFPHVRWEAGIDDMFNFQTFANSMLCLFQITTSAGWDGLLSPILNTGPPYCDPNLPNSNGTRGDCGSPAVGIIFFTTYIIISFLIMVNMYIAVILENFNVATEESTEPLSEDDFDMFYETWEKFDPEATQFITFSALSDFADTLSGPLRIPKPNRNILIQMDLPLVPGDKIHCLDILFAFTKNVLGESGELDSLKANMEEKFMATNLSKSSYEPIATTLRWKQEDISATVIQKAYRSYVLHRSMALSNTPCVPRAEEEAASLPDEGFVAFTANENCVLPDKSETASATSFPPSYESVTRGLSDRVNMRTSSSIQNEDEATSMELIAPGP

Compound | pIC50 [1] | pIC50 [2]
Cc1cc(C(F)(F)F)c(C)cc1Oc1ncc(C(F)(F)F)cc1C(=O)Nc1cccc(S(C)(=O)=O)c1 [Compound 1616] | 6.30 to 6.70 | 6.30 to 6.70
Cc1nc(C#N)ccc1Oc1ncc(C(F)(F)F)cc1C(=O)Nc1cccc(C(N)=O)c1 [Compound 1700] | 6.30 to 6.70 | 6.30 to 6.70
Cc1c(C(F)(F)F)nnc(Oc2ccc(OC(F)F)c(F)c2F)c1C(=O)Nc1cccc(S(C)(=O)=O)c1 [Compound 1422] | ≥ 7.70 | ≥ 7.70
Cc1cc(F)ccc1Oc1nnc(C2CC2)c(C)c1C(=O)Nc1cccc(S(C)(=N)=O)c1 (stereo not drawn) [Compound 1433, 6-cyclopropyl-3-(4-fluoro-2-methyl-phenoxy)-5-methyl-N-[3-(methylsulfonimidoyl)phenyl]pyridazine-4-carboxamide] | 6.70 to 7.40 | 6.70 to 7.40
Cc1ccc2c(Oc3ncc(C(F)(F)F)cc3C(=O)Nc3cccc(S(C)(=O)=O)c3)cccc2n1 [Compound 1625] | 6.30 to 6.70 | 6.30 to 6.70
Cc1cc(C(F)(F)F)ccc1Oc1ncc(C(F)(F)F)cc1C(=O)Nc1cccc(S(C)(=O)=O)c1 [Compound 1595] | ≥ 7.70 | 7.40 to 7.70
Cc1cc(F)ccc1Oc1nnc(C(F)(F)F)c(NC2CNC2)c1C(=O)Nc1cccc([S@@](C)(=N)=O)c1 [Compound 1523, (S)-5-(azetidin-3-ylamino)-3-(4-fluoro-2-methylphenoxy)-N-(3-(S-methylsulfonimidoyl)phenyl)-6-(trifluoromethyl)pyridazine-4-carboxamide] | 6.30 to 6.70 | 6.30 to 6.70
CSc1cccc(Oc2ncc(C(F)(F)F)cc2C(=O)Nc2cccc(S(C)(=O)=O)c2)c1 [Compound 1656] | 6.70 to 7.40 | 6.70 to 7.40
COc1cc(C#N)ccc1Oc1nnc(C2=CCOC2)c(C)c1C(=O)Nc1cccc(S(C)(=N)=O)c1 (stereo not drawn) [Compound 1556, 3-(4-cyano-2-methoxy-phenoxy)-6-(2,5-dihydrofuran-3-yl)-5-methyl-N-[3-(methylsulfonimidoyl)phenyl]pyridazine-4-carboxamide] | 6.70 to 7.40 | 6.70 to 7.40
CS(=O)(=O)c1cccc(NC(=O)c2cc(C(F)(F)F)cnc2Oc2cccc(S(C)(=O)=O)c2)c1 [Compound 1718, 2-(3-methylsulfonylphenoxy)-N-(3-methylsulfonylphenyl)-5-(trifluoromethyl)pyridine-3-carboxamide] | 6.30 to 6.70 | 6.30 to 6.70
COc1c(Oc2nnc(C)c(C)c2C(=O)Nc2cccc(S(C)(=N)=O)c2)ccc(F)c1F (stereo not drawn) [Compound 1435, 3-(3,4-difluoro-2-methoxyphenoxy)-5,6-dimethyl-N-(3-(S-methylsulfonimidoyl)phenyl)pyridazine-4-carboxamide] | 6.30 to 6.70 | 6.30 to 6.70
COc1c(Oc2nnc3c(c2C(=O)Nc2cccc(C(N)=O)c2)CCC3)ccc(F)c1F [Compound 1417] | 6.30 to 6.70 | 6.30 to 6.70
COc1ncc(Oc2ncc(C(F)(F)F)cc2C(=O)Nc2cccc(C(N)=O)c2)cc1F [Compound 1698] | 6.30 to 6.70 | 6.30 to 6.70
COc1ccc(Oc2nnc(C(F)(F)F)c(C)c2C(=O)Nc2cccc(S(C)(=N)=O)c2)c(C)n1 (single isomer, unassigned) [Compound 1508, N-{3-[imino(methyl)oxo-λ^6-sulfanyl]phenyl}-3-[(6-methoxy-2-methylpyridin-3-yl)oxy]-5-methyl-6-(trifluoromethyl)pyridazine-4-carboxamide] | 6.70 to 7.40 | 6.70 to 7.40
CS(=O)(=O)c1cccc(NC(=O)c2cc(C(F)(F)F)cnc2OCCC(F)(F)F)c1 [Compound 1604] | 6.30 to 6.70 | 6.70 to 7.40
NC(=O)c1cccc(NC(=O)c2cc(C(F)(F)F)cnc2Oc2ccc(OC(F)F)cc2)c1 [Compound 1635] | 6.70 to 7.40 | 6.70 to 7.40
COc1cc(C#N)ccc1Oc1nnc(C(F)(F)F)c(C)c1C(=O)Nc1cccc([S@@](C)(=N)=O)c1 (single isomer, unassigned) [Compound 1479] | ≥ 7.70 | ≥ 7.70
Cc1nn(C)cc1Oc1ncc(C(F)(F)F)cc1C(=O)Nc1cccc(S(C)(=N)=O)c1 (stereo not drawn) [Compound 1590] | 6.30 to 6.70 | 6.30 to 6.70
COc1cc(C#N)ccc1Oc1nnc(C(F)(F)F)c(C)c1C(=O)Nc1ccc(C(N)=O)nc1 [Compound 1539, N-(6-carbamoyl-3-pyridyl)-3-(4-cyano-2-methoxy-phenoxy)-5-methyl-6-(trifluoromethyl)pyridazine-4-carboxamide] | 7.40 to 7.70 | 6.70 to 7.40

Compound | pIC50 [1] | pIC50 [2]
COc1cc(C#N)cc(Oc2ncc(C(F)(F)F)cc2C(=O)Nc2cccc(S(C)(=N)=O)c2)c1 (stereo not drawn) [Compound 1592] | 6.30 to 6.70 | 6.30 to 6.70
COc1cc(C#N)ccc1Oc1nnc(-c2ccccn2)c(C)c1C(=O)Nc1cccc(S(C)(=N)=O)c1 (stereo not drawn) [Compound 1458, 3-(4-cyano-2-methoxyphenoxy)-5-methyl-N-(3-(S-methylsulfonimidoyl)phenyl)-6-(pyridin-2-yl)pyridazine-4-carboxamide] | 6.30 to 6.70 | 6.30 to 6.70
CS(=O)(=O)c1cccc(NC(=O)c2cc(C(F)(F)F)cnc2Oc2ccn3ccnc3c2)c1 [Compound 1597] | 6.30 to 6.70 | 6.30 to 6.70
CS(=N)(=O)c1cccc(NC(=O)c2cc(C(F)(F)F)cnc2Oc2cccnc2OC(F)(F)F)c1 (stereo not drawn) [Compound 1636] | ≥ 7.70 | ≥ 7.70
COc1cc(C#N)ccc1Oc1nnc(-c2ccc(C)cn2)c(C)c1C(=O)Nc1cccc(S(C)(=N)=O)c1 (stereo not drawn) [Compound 1464, 3-(4-cyano-2-methoxy-phenoxy)-5-methyl-6-(5-methyl-2-pyridyl)-N-[3-(methylsulfonimidoyl)phenyl]pyridazine-4-carboxamide] | 6.30 to 6.70 | 6.30 to 6.70
Cc1c(C(F)(F)F)nnc(Oc2ccc(C#N)cc2)c1C(=O)Nc1cccc(S(C)(=N)=O)c1 (stereo not drawn) [Compound 21] | 6.70 to 7.40 | 7.40 to 7.70
COc1c(Oc2nnc(C(F)(F)F)c(C)c2C(=O)Nc2cccc(S(C)(=N)=O)c2)ccc(Cl)c1F (stereo not drawn) [Compound 1489, 3-(4-chloro-3-fluoro-2-methoxy-phenoxy)-5-methyl-N-[3-(methylsulfonimidoyl)phenyl]-6-(trifluoromethyl)pyridazine-4-carboxamide] | ≥ 7.70 | ≥ 7.70
Cc1c(C(F)(F)F)nnc(Oc2ccc(OC3CCC3)c(F)c2F)c1C(=O)Nc1cccc(S(C)(=O)=O)c1 [Compound 1426] | ≥ 7.70 | ≥ 7.70
Cc1nc(C(F)(F)F)ccc1Oc1nnc(C(F)(F)F)c(C)c1C(=O)Nc1cccc(S(C)(=O)=O)c1 [Compound 1468, N-(3-methanesulfonylphenyl)-5-methyl-3-{[2-methyl-6-(trifluoromethyl)pyridin-3-yl]oxy}-6-(trifluoromethyl)pyridazine-4-carboxamide] | ≥ 7.70 | ≥ 7.70
Cc1cc(F)ccc1Oc1nnc(C(F)(F)F)c(C)c1C(=O)Nc1ccc(C(N)=O)cc1 [Compound 1416] | 6.70 to 7.40 | 6.70 to 7.40
Cc1c(C(F)(F)F)nnc(Oc2ccc(OC(F)(F)F)c(F)c2F)c1C(=O)Nc1cccc(S(C)(=O)=O)c1 [Compound 1419] | ≥ 7.70 | ≥ 7.70
COc1c(Oc2ncc(C#N)cc2C(=O)Nc2cccc(S(C)(=N)=O)c2)ccc(F)c1F (stereo not drawn) [Compound 1723, 5-cyano-2-(3,4-difluoro-2-methoxy-phenoxy)-N-[3 (methylsulfonimidoyl)phenyl]pyridine-3-carboxamide] | 7.40 to 7.70 | 7.40 to 7.70
CS(=O)(=O)c1cccc(NC(=O)c2cc(C(F)(F)F)cnc2Oc2cc(OC(F)(F)F)ccc2F)c1 [Compound 1658] | 6.70 to 7.40 | 6.30 to 6.70
COc1cc(Cl)ccc1Oc1nnc(C(F)(F)F)c(C)c1C(=O)Nc1cccc(S(C)(=N)=O)c1 (single isomer, unassigned) [Compound 1482, 3-(4-chloro-2-methoxyphenoxy)-5-methyl-N-(3-(S-methylsulfonimidoyl)phenyl)-6-(trifluoromethyl)pyridazine-4-carboxamide] |  | ≥ 7.70
Cc1c(C(F)(F)F)nnc(Oc2ccc(OC3CCC3)c(F)c2F)c1C(=O)Nc1cccc(S(C)(=N)=O)c1 (single isomer, unassigned) [Compound 1493, 3-(4-cyclobutoxy-2,3-difluorophenoxy)-N-{3-[imino(methyl)oxo-λ^6-sulfanyl]phenyl}-5-methyl-6-(trifluoromethyl)pyridazine-4-carboxamide] | ≥ 7.70 | ≥ 7.70
NC(=O)c1ccc(NC(=O)c2cc(C(F)(F)F)cnc2OC2CC3C(C2)C3(F)F)cc1 (stereo not drawn) [Compound 1673] | 6.30 to 6.70 | 6.30 to 6.70
COc1cc(C#N)ccc1Oc1nnc(C2=CCN(C(C)=O)CC2)c(C)c1C(=O)Nc1cccc(S(C)(=N)=O)c1 (stereo not drawn) [Compound 1554, 6-(1-acetyl-3,6-dihydro-2H-pyridin-4-yl)-3-(4-cyano-2-methoxy-phenoxy)-5-methyl-N-[3-(methylsulfonimidoyl)phenyl]pyridazine-4-carboxamide] | 6.30 to 6.70 | 6.30 to 6.70
Cc1c(C(F)(F)F)nnc(Oc2ccc(OC(C)C)c(F)c2F)c1C(=O)Nc1cccc(S(C)(=N)=O)c1 (stereo not drawn) [Compound 1501, 3-[2,3-difluoro-4-(propan-2-yloxy)phenoxy]-N-{3-[imino(methyl)oxo-λ^6-sulfanyl]phenyl}-5-methyl-6-(trifluoromethyl)pyridazine-4-carboxamide] | ≥ 7.70 | ≥ 7.70
COc1cc(C#N)ccc1Oc1nnc(-c2cncn2C)c(C)c1C(=O)Nc1cccc(S(C)(=N)=O)c1 (stereo not drawn) [Compound 1447, 3-(4-cyano-2-methoxy-phenoxy)-5-methyl-6-(3-methylimidazol-4-yl)-N-[3-(methylsulfonimidoyl)phenyl]pyridazine-4-carboxamide] | 7.40 to 7.70 | 7.40 to 7.70
